Data: paper PMC9611727, “Optimization of a Novel Mandelamide-Derived Pyrrolopyrimidine Series of PERK Inhibitors” (Pharmaceutics, 2022)

Key:
Experiment in all cases: scanMAX kinase panel
Type in all cases: binding
Conditions in all cases: read-out: % Control; for remaining binding at 1 µM: 1000 nM
AURKB = biological target: T1, AURKB (Homo sapiens, UniProt Q96GD4)
T1 construct: purchased DiscoverX scanMAX
Excerpt: (§1) Supplemental Table S2. scanMAXSM Kinome Assay Results. Complete tabulated data of all 468 kinases from the panel, including
(§2) 403 wild-type and 65 mutant isoforms. […] Cmpd 11 and Cmpd 24

AXL = biological target: T2, AXL (Homo sapiens, UniProt P30530)
T2 construct: purchased DiscoverX scanMAX
T2 sequence (P30530 26-894): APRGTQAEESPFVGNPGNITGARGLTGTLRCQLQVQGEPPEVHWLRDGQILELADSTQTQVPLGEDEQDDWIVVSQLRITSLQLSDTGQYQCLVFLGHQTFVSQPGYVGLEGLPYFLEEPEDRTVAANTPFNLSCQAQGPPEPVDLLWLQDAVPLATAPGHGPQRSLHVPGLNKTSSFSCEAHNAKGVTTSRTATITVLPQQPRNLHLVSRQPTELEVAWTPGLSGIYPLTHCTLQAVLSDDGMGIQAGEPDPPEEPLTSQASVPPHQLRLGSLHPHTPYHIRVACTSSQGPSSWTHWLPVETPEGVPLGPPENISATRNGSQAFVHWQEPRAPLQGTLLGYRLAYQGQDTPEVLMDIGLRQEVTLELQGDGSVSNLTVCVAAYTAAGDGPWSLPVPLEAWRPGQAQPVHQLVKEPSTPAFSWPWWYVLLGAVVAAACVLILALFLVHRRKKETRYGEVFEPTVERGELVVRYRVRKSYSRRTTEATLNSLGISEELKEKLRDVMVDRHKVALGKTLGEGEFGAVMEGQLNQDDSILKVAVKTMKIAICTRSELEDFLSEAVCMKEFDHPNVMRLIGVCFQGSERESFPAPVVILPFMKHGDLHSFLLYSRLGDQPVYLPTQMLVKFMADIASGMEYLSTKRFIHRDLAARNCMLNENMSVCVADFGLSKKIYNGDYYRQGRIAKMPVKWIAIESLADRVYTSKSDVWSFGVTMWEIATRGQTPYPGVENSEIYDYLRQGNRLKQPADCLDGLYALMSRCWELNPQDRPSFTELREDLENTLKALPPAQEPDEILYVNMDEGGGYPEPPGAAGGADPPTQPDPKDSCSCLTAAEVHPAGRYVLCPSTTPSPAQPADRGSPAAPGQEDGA
Excerpt: as §1, §2

KIT = biological target: T3, KIT (Homo sapiens, UniProt P10721)
T3 construct: purchased DiscoverX scanMAX
T3 sequence (P10721 26-976): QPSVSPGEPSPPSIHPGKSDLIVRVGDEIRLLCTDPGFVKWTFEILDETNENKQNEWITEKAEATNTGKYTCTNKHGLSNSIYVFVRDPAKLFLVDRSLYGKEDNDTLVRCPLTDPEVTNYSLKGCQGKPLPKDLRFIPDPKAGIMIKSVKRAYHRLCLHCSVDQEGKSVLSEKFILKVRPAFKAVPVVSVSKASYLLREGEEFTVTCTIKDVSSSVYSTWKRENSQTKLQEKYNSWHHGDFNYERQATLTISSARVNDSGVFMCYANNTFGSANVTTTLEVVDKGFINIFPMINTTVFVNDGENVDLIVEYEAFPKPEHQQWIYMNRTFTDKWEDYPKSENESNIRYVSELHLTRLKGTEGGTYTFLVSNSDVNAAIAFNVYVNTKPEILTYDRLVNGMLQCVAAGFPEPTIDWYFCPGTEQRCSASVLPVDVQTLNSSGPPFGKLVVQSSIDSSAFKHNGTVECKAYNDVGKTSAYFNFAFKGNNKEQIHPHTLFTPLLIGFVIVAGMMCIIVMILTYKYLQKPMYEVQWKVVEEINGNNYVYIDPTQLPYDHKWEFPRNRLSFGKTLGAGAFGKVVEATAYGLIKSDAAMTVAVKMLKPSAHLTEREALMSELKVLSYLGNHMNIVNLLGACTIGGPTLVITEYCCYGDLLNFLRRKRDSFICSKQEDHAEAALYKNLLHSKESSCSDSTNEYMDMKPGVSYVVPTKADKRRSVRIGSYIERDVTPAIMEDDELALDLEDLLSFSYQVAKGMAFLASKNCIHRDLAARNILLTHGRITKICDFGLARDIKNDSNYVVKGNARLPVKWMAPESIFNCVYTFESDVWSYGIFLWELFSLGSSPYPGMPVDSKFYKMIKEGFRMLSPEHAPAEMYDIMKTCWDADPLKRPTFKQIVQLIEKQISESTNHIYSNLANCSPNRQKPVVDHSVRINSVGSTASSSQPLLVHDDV
Excerpt: as §1, §2

YSK4 = biological target: T4, YSK4 (Homo sapiens, UniProt Q56UN5)
T4 construct: purchased DiscoverX (scanMAX panel)
T4 sequence (Q56UN5 1-1328): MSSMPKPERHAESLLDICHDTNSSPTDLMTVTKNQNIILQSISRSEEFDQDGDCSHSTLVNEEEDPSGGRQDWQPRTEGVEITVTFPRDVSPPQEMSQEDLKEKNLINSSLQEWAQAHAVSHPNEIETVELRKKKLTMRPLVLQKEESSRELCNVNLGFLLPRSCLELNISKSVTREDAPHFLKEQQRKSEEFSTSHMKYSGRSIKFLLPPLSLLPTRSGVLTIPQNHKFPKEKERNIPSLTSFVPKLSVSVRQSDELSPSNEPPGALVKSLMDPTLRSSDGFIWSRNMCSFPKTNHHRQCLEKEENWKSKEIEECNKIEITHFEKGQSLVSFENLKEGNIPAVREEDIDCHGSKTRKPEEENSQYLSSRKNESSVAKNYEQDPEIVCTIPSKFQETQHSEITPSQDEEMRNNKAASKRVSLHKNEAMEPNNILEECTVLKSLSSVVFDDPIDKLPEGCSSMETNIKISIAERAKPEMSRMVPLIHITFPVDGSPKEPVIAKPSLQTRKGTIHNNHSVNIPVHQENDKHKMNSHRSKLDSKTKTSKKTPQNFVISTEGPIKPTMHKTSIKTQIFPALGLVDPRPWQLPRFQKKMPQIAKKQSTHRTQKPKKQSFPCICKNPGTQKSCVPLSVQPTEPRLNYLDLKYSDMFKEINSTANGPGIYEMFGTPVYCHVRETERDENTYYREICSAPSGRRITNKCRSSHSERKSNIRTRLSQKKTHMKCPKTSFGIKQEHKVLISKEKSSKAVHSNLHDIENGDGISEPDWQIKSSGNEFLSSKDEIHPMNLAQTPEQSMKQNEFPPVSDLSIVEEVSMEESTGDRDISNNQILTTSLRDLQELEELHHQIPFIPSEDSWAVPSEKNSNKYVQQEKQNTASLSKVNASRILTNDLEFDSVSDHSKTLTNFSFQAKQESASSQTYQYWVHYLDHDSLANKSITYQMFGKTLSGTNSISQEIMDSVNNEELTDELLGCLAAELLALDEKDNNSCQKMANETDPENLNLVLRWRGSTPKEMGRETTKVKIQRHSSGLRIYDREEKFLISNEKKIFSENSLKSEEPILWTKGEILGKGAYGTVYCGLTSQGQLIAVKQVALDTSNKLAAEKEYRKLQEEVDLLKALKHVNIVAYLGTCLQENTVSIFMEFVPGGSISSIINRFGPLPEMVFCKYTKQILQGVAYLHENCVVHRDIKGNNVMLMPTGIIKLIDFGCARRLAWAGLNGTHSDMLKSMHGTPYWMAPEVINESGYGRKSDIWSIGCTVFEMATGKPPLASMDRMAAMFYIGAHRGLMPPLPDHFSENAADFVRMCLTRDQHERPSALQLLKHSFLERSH
Excerpt: as §1, §2

T1 sequence (Q96GD4 whole entry): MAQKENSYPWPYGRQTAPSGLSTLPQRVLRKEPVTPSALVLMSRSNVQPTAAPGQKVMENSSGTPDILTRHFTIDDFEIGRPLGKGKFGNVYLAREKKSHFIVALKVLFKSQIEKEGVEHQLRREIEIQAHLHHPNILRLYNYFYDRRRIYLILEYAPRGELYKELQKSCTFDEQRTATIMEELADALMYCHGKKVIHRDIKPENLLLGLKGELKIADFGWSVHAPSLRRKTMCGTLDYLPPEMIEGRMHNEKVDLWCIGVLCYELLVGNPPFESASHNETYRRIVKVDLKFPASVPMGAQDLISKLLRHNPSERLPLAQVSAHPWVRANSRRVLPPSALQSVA

SMILES	remaining binding at 1 µM (AURKB)	remaining binding at 1 µM (AXL)	remaining binding at 1 µM (KIT)	remaining binding at 1 µM (YSK4)	remaining binding at 0.1 µM (AURKB; 100 nM)	remaining binding at 0.1 µM (AXL; 100 nM)	remaining binding at 0.1 µM (KIT; 100 nM)	remaining binding at 0.1 µM (YSK4; 100 nM)
Cc1cc(NC(=O)[C@H](O)c2cccc(F)c2)ccc1-c1cn(C)c2ncnc(N)c12 [Compound 11, (R)-N-(4-(4-amino-7-methyl-7H-pyrrolo[2,3-d]pyrimidin-5-yl)-3-methylphenyl)-2-(3-fluorophenyl)-2-hydroxy acetamide]	24%	56%	38%	18%				
Cc1nc(N)c2c(-c3ccc(NC(=O)[C@H](O)c4cccc(F)c4)cc3C)cn(C)c2n1 [Compound 24]	90%	100%	100%	100%				
Cc1nc(N)c2c(-c3ccc(NC(=O)[C@H](O)c4cccc(C(F)(F)F)c4)cc3C)cn(C)c2n1 [Compound 26]	70%	0.7%	0.65%	55%	81%	99%	97%	95%
